Patent US5484778A, “Phthalocyanine photosensitizers for photodynamic therapy and methods for their use” (priority 1993, dated 1996)

How the values were obtained:
V79 cells = experiment: Clonogenicity, killing of V79 cells using photodynamic therapy (Table 3); format: cell-based, Chinese hamster
Procedure, shortened: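 V79 Chinese hamster lung fibroblasts were loaded with 0.5 or 1.0 μM phthalocyanine, then about 18 h later irradiated with increasing doses of 675 nm broad-band red light (tungsten-halogen lamp, 600 nm high-pass filter). Recorded value is the light dose killing 90% of cells, or, failing that, the maximum kill (% survival) and its dose.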

L5178Y cells = experiment: Induction of apoptosis (DNA fragmentation) in L5178Y-R cells (Table 6); format: cell-based, mouse; settings: 0.4 μM
Procedure, shortened: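 Exponentially growing mouse lymphoma L5178Y-R cells loaded 18 hours with phthalocyanine at various concentrations, then irradiated with >600 nm red light (up to 30 kJ/m^2, ~74 W/m^2). DNA isolated 2 hours post-PDT, run on 1.5% agarose; value is minimum PDT dose (concentration × fluence) giving visible DNA ladder.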

RIF-1 tumors = experiment: PDT of RIF-1 implanted tumors (Table 7); format: in vivo, C3H/HeN mice; settings: for effect on tumor volume / growth (in words): 1 mg/kg
Procedure, shortened: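 C3H/HeN mice each carried one RIF-1 fibrosarcoma on the back and received 1 mg/kg phthalocyanine as a corn-oil suspension. Volume was measured daily by calipers from a 50±10 mm^3 start and calculated with the hemiellipsoid model.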

[1] = tested on: chemically-induced benign skin papillomas; experiment: PDT of chemically induced skin tumors in SENCAR mice (FIG. 4); format: in vivo; settings: 0.5 and 1.0 mg/kg i.p. in DPPC liposomes
Experimental: 6-week-old female SENCAR mice received a single topical application of 5 μg DMBA in 0.2 ml acetone on the dorsal skin as tumor initiator. One week later, the animals were started on twice-weekly topical applications of 1 μg TPA in 0.2 ml acetone as tumor promoter. All of the animals developed tumors at 12 weeks. Mice that developed 4-5 tumors per animal averaging 5-8 mm in diameter and 2-5 mm in thickness were used. Pc IV, entrapped in DPPC liposomes was administered intraperitoneally at doses of either 0.5 or 1.0 mg/kg and 24 hrs later the tumor area was illuminated with light from an argon pumped dye laser tuned at 675 nm for a total light dose of 135 J/cm^2 (75 mW/cm^2). All possible controls were included; either the animals were untreated, treated only with laser light or treated only with Pc IV alone.

`CN(C)CCC[Si](C)(C)O[Si]1(O)n2c3c4ccccc4c2N=C2N=C(N=c4c5ccccc5c(n41)=NC1=NC(=N3)c3ccccc31)c1ccccc12` (stereo not shown) [Compound IV, HOSiPcOsi(CH3)2)(CH2)3 N(CH3)2] was tested, and the “LD 90” value (V79 cells; 0.5 μM, 18 h, light dose killing 90% of cells) was 4 kJ/m^2, the “photosensitizing activity, killing V79 cells (in words)” value (V79 cells; discussion of Table 3) was “most active at killing V79 cells” and the “Minimum Demonstrated Condition to induce apoptosis: C × F” value (L5178Y cells) was 1.2 μm × kJ/m^2. The “Minimum Demonstrated Condition to induce apoptosis: Fluence” value (L5178Y cells) was 3.0 kJ/m^2, the “Doubling Time of Initial Tumor Volume after PDT” value (RIF-1 tumors; 1 mg/kg in corn oil, 675 nm, 135 J/cm^2) was 16 days and the “effect on tumor volume / growth (in words)” value (RIF-1 tumors; listed as Pc IV) was “significantly impair the growth of the tumors”. The “effect on tumor volume / growth (in words)” value (RIF-1 tumors; listed as PcIV) was “particularly effective in reducing tumor volume”, the tumor regrowth (RIF-1 tumors; after PDT, from the tumor margins) was “regrowth of tumors from the tumor margins occurred” and the “tumor volume (eventual)” value ([1]; 675 nm, 135 J/cm^2) was 0. The tumor recurrence ([1]; 34 days) was “did not return for the length of the study, 34 days”.
